In ChEMBL document CHEMBL3351493, “Beta-aminoketones as prodrugs for selective irreversible inhibitors of type-1 methionine aminopeptidases” (Bioorg Med Chem Lett, 2014):
Active and inactive are the calls of the source. No cut-off for these calls is given here.

Columns and labels:
[1] = tested on: MeWo; assay: Cytotoxicity against human MeWo cells at 1.6 to 100 ug/ml after 72 hrs by crystal violet assay; format: functional, cell-based
[2] = tested on: Calu-6; assay: Cytotoxicity against human Calu6 cells at 1.6 to 100 ug/ml after 72 hrs by crystal violet assay; format: functional, cell-based
[3] = molecular target: Methionine aminopeptidase (Staphylococcus aureus (strain COL), UniProt Q5HEN6); assay: Inhibition of N-terminal poly-His-tagged Staphylococcus aureus COL MetAP expressed in Escherichia coli BL21(DE3) incubated for 30 mins before MGMM substrate addition by fluorescence assay; design: species or system Staphylococcus aureus subsp. aureus COL
Chain of Methionine aminopeptidase (Staphylococcus aureus (strain COL), UniProt Q5HEN6) (Q5HEN6 whole entry): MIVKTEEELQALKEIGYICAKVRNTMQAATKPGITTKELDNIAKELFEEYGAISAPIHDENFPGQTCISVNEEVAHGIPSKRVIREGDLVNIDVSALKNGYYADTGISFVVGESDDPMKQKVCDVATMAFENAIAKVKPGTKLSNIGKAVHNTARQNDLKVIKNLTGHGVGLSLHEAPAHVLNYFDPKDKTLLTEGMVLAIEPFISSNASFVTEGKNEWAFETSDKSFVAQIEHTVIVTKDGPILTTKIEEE

[4] = tested on: HaCaT; assay: Cytotoxicity against human HaCaT cells at 1.6 to 100 ug/ml after 72 hrs by crystal violet assay; format: cell-based
[5] = Half life assessed as decomposition into amines and unsaturated ketones at 250 uM in 50 mM Tris/maleate pH 7.5 buffer by HPLC method; format: physicochemical; settings: for half-life at 250 µM: Tris/maleate buffer, pH 7.5; for t1/2: buffer, pH 7.5, 250 µM
[6] = tested on: Ca-Ski; assay: Cytotoxicity against human CaSki cells at 1.6 to 100 ug/ml after 72 hrs by crystal violet assay; format: functional, cell-based
[7] = molecular target: Methionine aminopeptidase 1 (Homo sapiens, UniProt P53582); assay: Inhibition of N-terminal poly-His-tagged human MetAP-1 expressed in Escherichia coli BL21(DE3) incubated for 30 mins before MGMM substrate addition by fluorescence assay
[8] = tested on: Escherichia coli; assay: Antimicrobial activity against Escherichia coli BL21(DE3) assessed as inhibition of bacterial growth at 200 uM incubated at 37 degC for 7 hrs; format: functional; settings: for inhibition at 200 µM: BL21-DE3, 7 h
[9] = Cytotoxicity against human Flow 2002 cells at 1.6 to 100 ug/ml after 72 hrs by crystal violet assay; format: cell-based; settings: flow 2002, 72 h
[10] = molecular target: T1, Methionine aminopeptidase (Escherichia coli K-12, UniProt P0AE18); assay: Inhibition of C-terminal poly-His-tagged Escherichia coli MetAP expressed in Escherichia coli BL21(DE3) incubated for 30 mins before MGMM substrate addition by fluorescence assay
T1 sequence (P0AE18 whole entry): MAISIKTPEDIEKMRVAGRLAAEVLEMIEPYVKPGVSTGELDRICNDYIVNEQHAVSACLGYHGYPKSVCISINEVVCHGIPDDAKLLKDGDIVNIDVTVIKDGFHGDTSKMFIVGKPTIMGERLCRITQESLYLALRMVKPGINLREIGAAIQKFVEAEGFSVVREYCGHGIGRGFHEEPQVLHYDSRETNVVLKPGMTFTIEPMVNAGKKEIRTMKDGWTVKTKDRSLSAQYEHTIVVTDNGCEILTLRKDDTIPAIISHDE

[11] = tested on: A 172; assay: Cytotoxicity against human A172 cells at 1.6 to 100 ug/ml after 72 hrs by crystal violet assay; format: functional, cell-based
[12] = molecular target: Methionine aminopeptidase 2 (Homo sapiens, UniProt P50579); settings: sf9
Chain of Methionine aminopeptidase 2 (P50579 whole entry): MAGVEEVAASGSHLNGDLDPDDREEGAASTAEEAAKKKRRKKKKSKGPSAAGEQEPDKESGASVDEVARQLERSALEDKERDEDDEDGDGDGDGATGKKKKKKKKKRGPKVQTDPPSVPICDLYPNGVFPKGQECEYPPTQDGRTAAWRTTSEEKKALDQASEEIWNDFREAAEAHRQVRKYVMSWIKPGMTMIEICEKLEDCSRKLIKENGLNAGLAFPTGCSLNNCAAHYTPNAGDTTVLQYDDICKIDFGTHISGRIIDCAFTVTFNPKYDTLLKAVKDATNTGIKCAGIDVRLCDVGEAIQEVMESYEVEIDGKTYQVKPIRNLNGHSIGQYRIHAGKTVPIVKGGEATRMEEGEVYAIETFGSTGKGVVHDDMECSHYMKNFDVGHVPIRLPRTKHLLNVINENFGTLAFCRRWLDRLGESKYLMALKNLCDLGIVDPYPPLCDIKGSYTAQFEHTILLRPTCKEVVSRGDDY
Description: Inhibition of human MetAP-2 expressed in Sf9 cells incubated for 60 mins before MGMM substrate addition by fluorescence assay

[13] = tested on: SW707; assay: Cytotoxicity against human SW707 cells at 1.6 to 100 ug/ml after 72 hrs by crystal violet assay; format: functional, cell-based
[14] = tested on: A-431; assay: Cytotoxicity against human A431 cells at 1.6 to 100 ug/ml after 72 hrs by crystal violet assay; format: functional, cell-based
[15] = tested on: BT-474; assay: Cytotoxicity against human BT474 cells at 1.6 to 100 ug/ml after 72 hrs by crystal violet assay; format: functional, cell-based
[16] = tested on: CAPAN-1; assay: Cytotoxicity against human Capan1 cells at 1.6 to 100 ug/ml after 72 hrs by crystal violet assay; format: functional, cell-based

SMILES	Activity [1]	Activity [2]	IC50 [3]	Activity [4]	half-life at 250 µM [5] [h]	Activity [6]	IC50 [7]	inhibition at 200 µM [8] [%]	Activity [9]	IC50 ([10]; read-out: IC50) [µM]	Activity [11]	IC50 [12]	Activity [13]	Activity [14]	Activity [15]	Activity [16]	t1/2 [5]	inhibition [8]	IC50 [10]	IC50 ([3]; read-out: IC50) [µM]
COc1ccc2c(c1)C(=O)C(CN1CCCCC1)CC2.Cl (stereo not drawn)	Active	Active	Not Active	Toxic	10.5	Active	Not Active	30	Toxic	3.7	Active	Not Active	Active	Active	Active	Active	–	–	–	–
Cl.O=C(CCN1CCCCC1)c1ccccc1	Active	Active	Not Active	Toxic	–	Active	Not Active	–	Toxic	–	Active	Not Active	Active	Active	Active	Active	Stable	inactive	Not Active	–
CC1CC(CN(C)C)C(=O)c2ccccc21.Cl (stereo not drawn)	Active	Active	Not Active	Toxic	4.82	Active	Not Active	75	Toxic	3.8	Active	Not Active	Active	Active	Active	Active	–	–	–	–
COc1ccc2c(c1)C(=O)C(CN(C)C)CC2.Cl (stereo not drawn)	Active	Active	Not Active	Toxic	6.8	Active	Not Active	49	Toxic	2.1	Active	Not Active	Active	Active	Active	Active	–	–	–	–
CCC(CN(C)C)C(=O)c1ccccc1.Cl (stereo not drawn)	Active	Active	Not Active	Toxic	–	Active	Not Active	–	Toxic	–	Active	Not Active	Active	Active	Active	Active	Stable	inactive	Not Active	–
CN(C)CC1CCc2ccccc2C1=O.Cl (stereo not drawn)	Active	Active	Not Active	Toxic	5.78	Active	Not Active	68	Toxic	8.4	Active	Not Active	Active	Active	Active	Active	–	–	–	–
C=C1Cc2cc(OC)c(OC)cc2C1=O	Active	Active	–	Toxic	–	Active	Not Active	25	Toxic	0.7	Active	Not Active	Active	Active	Active	Active	–	–	–	18.9
COc1cccc(C(=O)CCN2CCCCC2)c1.Cl	Active	Active	Not Active	Toxic	–	Active	Not Active	–	Toxic	–	Active	Not Active	Active	Active	Active	Active	Stable	inactive	Not Active	–
COc1cc2c(cc1OC)C(=O)C(CN(C)C)C2.Cl (stereo not drawn)	Active	Active	–	Toxic	0.933	Active	Not Active	17	Toxic	1.7	Active	Not Active	Active	Active	Active	Active	–	–	–	18.9
Cl.O=C1c2ccccc2CCC1CN1CCCCC1 (stereo not drawn)	Active	Active	Not Active	Toxic	14.4	Active	Not Active	28	Toxic	9.1	Active	Not Active	Active	Active	Active	Active	–	–	–	–
CN(C)CC1CCc2sccc2C1=O.Cl (stereo not drawn)	Active	Active	Not Active	Toxic	116	Active	Not Active	10	Toxic	60.8	Active	Not Active	Active	Active	Active	Active	–	–	–	–
Cc1cc(C)c2c(c1)C(=O)C(CN(C)C)CC2.Cl (stereo not drawn)	Active	Active	Not Active	Toxic	14.4	Active	Not Active	56	Toxic	45.5	Active	Not Active	Active	Active	Active	Active	–	–	–	–
CN(C)CC1(C)Cc2ccccc2C1=O.Cl (stereo not drawn)	inactive	inactive	Not Active	Non-toxic	–	inactive	Not Active	–	Non-toxic	–	inactive	Not Active	inactive	inactive	inactive	inactive	Stable	inactive	Not Active	–
COc1ccc(C(=O)CCN2CCCCC2)cc1.Cl	Active	Active	Not Active	Toxic	–	Active	Not Active	–	Toxic	–	Active	Not Active	Active	Active	Active	Active	–	inactive	Not Active	–
COc1cccc(C(=O)CCN(C)C)c1.Cl	Active	Active	Not Active	Toxic	–	Active	Not Active	–	Toxic	–	Active	Not Active	Active	Active	Active	Active	Stable	inactive	Not Active	–
